Molecular target: T1, Dihydrofolate reductase (Pneumocystis carinii, UniProt P16184)
T1 sequence (P16184 whole entry): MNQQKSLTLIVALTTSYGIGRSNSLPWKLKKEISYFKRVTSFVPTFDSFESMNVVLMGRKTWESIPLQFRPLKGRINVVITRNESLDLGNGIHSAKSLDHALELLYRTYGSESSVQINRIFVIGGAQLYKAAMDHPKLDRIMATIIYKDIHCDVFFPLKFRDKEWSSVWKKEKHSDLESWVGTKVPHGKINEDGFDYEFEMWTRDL
Assay: Inhibition of Pneumocystis carinii DHFR

Compound	IC50
CCc1nc2nc(N)nc(N)c2nc1CC	620 nM
COc1cc(C)c2c(OC3CCCCC3C(F)(F)F)c(OC)cc(NC(C)CCCN)c2n1 (stereo not given)	711 nM
N=C(N)c1ccc(N2CCN(c3ccc(-c4nc5ccccc5[nH]4)cc3)CC2)cc1	170 nM
COc1cc(Cc2cnc(N)nc2N)cc(C#CCCC(=O)O)c1OC	1000 nM
CCc1nc(N)nc(N)c1-c1ccc(Cl)c(N(C)Cc2ccccc2)c1	1070 nM

Source: ChEMBL document CHEMBL3045753, “In silico ligand-based pharmacophore model generation for the identification of novel Pneumocystis carinii DHFR inhibitors” (Med Chem Res, 2013)
